# Measurements published in patent US20110076258A1, “METHODS OF MODULATING T CELL- DEPENDENT IMMUNE RESPONSES” (Converge Biotech Inc., priority 2008, published 2011).
# Entries after “also recorded” stand apart in the source; their conditions may differ. Like-named read-outs stand apart in the source and are kept apart here.
# How the values were obtained:
# DO11.10 T cell clones = assay: Ca2+ imaging with P2 receptor agonists; format: cell-based, mouse
# ERK = ERK phosphorylation time course after CD3 stimulation, TCR signaling blocked with PP2 at 30 min; format: cell-based, mouse; settings: for ERK phosphorylation / activity: added in combination with PP2
# Protocol: (§1) After 30 min of stimulation, cells were either left untreated (first panel on the left), or treated with the src-like kinase inhibitor PP2 either alone (second panel) or in combination with oATP (third panel) or ARL (fourth panel).
# (§2) In order to distinguish between TCR dependent and independent ERK activation, TCR signaling was blocked at 30 min after CD3 activation with the tyrosine kinase inhibitor PP2, which inhibits TCR dependent Ick/fyn src-like kinase activity.
# ZAP-70 = ZAP-70 phosphorylation after CD3 stimulation, PP2 added at 30 min; format: cell-based, mouse; settings: PP2 at 30 min after CD3 activation
# Protocol: as §1, §2
# naïve CD4^+ T cells [1] = assay: IL-2 ELISA in culture supernatants, plate-bound CD3 and CD28 stimulation; format: cell-based, mouse
# Description: An inhibitory effect of oATP on peripheral blood T cell proliferation has been described (Baricordi et al., Blood 87:682-690 (1996)). […] We therefore hypothesize that ATP released from activated T cell is part of an autocrine loop, which plays an essential role in productive T cell activation.
# NFAT1 = NFAT1 nuclear localization after T cell stimulation; format: cell-based, mouse
# Protocol: as §2
# (§3) NFAT nuclear translocation without concomitant MAPK activation, which can be obtained by ionomycin treatment, implements a transcriptional program leading to T cell anergy (Macian et al., Cell 109:719-731 (2002)). […] Then, we hypothesized that activation of T cells in the presence of oATP could induce T cell anergy.
# MAPK = assay: Protracted MAPK (p38, Erk) activation after 16 h CD3 stimulation; format: cell-based, mouse; settings: crt^−/− T cells, CD3 antibodies 16 h
# crt^−/− CD4^+ T cells [2] = system: crt^−/− CD4^+ T cells
# Egr2 and Egr3 = assay: Real-time PCR of anergy related genes Egr2 and Egr3; format: cell-based, mouse; settings: PMA together with oATP
# Description: as §3, with “anergy. […] The effect of oATP was not due to altered turn-over of the TCR/CD3 complex at the cell surface, as determined by FACS analysis (data not shown).” for “anergy.”
# naive CD4 T cells = assay: T cell proliferation by CFSE dilution, plate-bound CD3 and CD28 mAbs; format: cell-based, mouse; settings: IL-2 at 250 U/ml; PMA
# mouse T cells = assay: IL-2 secretion by ELISA; format: cell-based
# T cell clones = assay: Cellular ATP content by luciferase assay after TCR triggering; format: cell-based; settings: 200 μM PX10 preincubation 30 minutes
# Protocol: FIG. 10: The pannexin blocking peptide PX10 increases the intracellular ATP concentration upon TCR triggering.
# Finally, we tested whether the inhibition of pannexin-mediated ATP release might lead to a fast accumulation of ATP following T cell activation. T cell clones were preincubated with 200 μM PX10 for 30 minutes. They were then stimulated with biotinylated anti-CD3 antibodies followed by crosslinking with strepavidine. Samples were collected at indicated time points, detergent-solubilized and frozen until their use in a standard luciferase assay to determine cellular ATP content.
# human T cells = assay: Proliferation of CFSE-loaded T cells, plate-bound anti-CD3/28 (FACS); format: cell-based; settings: 100 μM oATP or 200 μM of PX10 peptide, four days
# Protocol: Our results point to a role for pannexin hemichannels in ATP release in T cells. […] CFSE-loaded human T cells were stimulated with plate-bound anti-CD3/28 antibodies in the presence of 100 μM oATP or 200 μM of PX10 peptide. Four days later, the proliferation was measured by FACS analysis.
# crt^−/− CD4^+ T cells [3] = assay: Propidium iodide (PI) staining of treated cells
# naïve CD4^+ T cells [4] = assay: ATP synthesis after T cell activation with CD3 antibodies; format: cell-based, mouse
# Description: CCE induced by antigenic activation of crt^−/− CD4^+ T cells might therefore be linked to a higher ATP production compared to crt^+/+ cells.
# CRAC channels = assay: Ca2+ dependent CRAC inactivation, two sequential Ca2+ additions after tapsigargin store depletion (Fura-2); format: cell-based, mouse; settings: in the presence of CCCP
# Protocol: FIG. 1: Increased mitochondrial Ca^2+ buffering in crt^−/− T cells. • a) After ER Ca^2+ depletion with tapsigargin, CCE was induced in crt^−/− and crt^+/+ T cell clones by the addition of 0.5 mM Ca^2+ to the extracellular medium (see Example 1). After complete washout of extracellular Ca^2+, the mitochondrial Ca^2+ buffering was visualized by the addition of ionomycin. • b) Histograms representing mitochondrial Ca^2+ content after CCE with 0.5, 1 and 2 mM extracellular Ca^2+ in crt^−/− and crt^+/+ T cell clones. • c) Increased mitochondrial Ca^2+ buffering in crt^−/− T cells retards CRAG inactivation. Cells were treated with tapsigargin followed by two separate additions of Ca^2+ to the extracellular medium (see Example 1) (see also FIG. 2C). The rate of rise of cytosolic Ca^2+ concentration was calculated at the first and second addition of Ca^2+. […] (*, P<0.05, **, P<0.001, ***, P<0.0001)
# FIG. 2: Reduced Ca^2+ in the ER, unaltered mitochondrial membrane potential and decreased CRAC inactivation in crt^−/− T cells. • a) The ER Ca^2+ content of Fura-2 loaded D011.10 TCR transgenic T cell clones was assessed by addition of the SERCA pump inhibitor tapsigargin to a medium devoid of Ca^2+ (see Example 1). The passive leak of Ca^2+ from the ER into the cytosol is seen as a slow transient rise in the cytosolic Ca^2+ concentration. […]
molecule,measurement,setting,value
CSc1nc(N)c2ncn([C@@H]3O[C@H](COP(=O)(O)OP(=O)(O)OP(=O)(O)O)[C@@H](O)[C@H]3O)c2n1 [MeSATP],cells activated / responsive to P2 subtype preferring agonist,DO11.10 T cell clones,35%
CC(C)(C)n1nc(-c2ccc(Cl)cc2)c2c(N)ncnc21 [PP2],ERK phosphorylation at later time points,ERK; PP2 alone,did not significantly affect; also recorded: less affected
same,TCR-dependent phosphorylation of ZAP-70,ZAP-70,affected; also recorded: efficiently inhibited
"Nc1ncnc2c1ncn2[C@@H]1O[C@H](COP(=O)(O)OP(=O)(O)OP(=O)(O)O)[C@@H](O)[C@H]1O [ATP, adenosine triphosphate]",cells with calcium rise,"DO11.10 T cell clones; 1 mM ATP, Ca^2+ present in the extracellular medium",52%
same,cytosolic calcium rise,DO11.10 T cell clones; absence of extracellular Ca^2+,moderate cytosolic calcium rise
CCN(CC)c1ncnc2c1ncn2[C@@H]1O[C@H](COP(=O)(O)OP(=O)(O)C(Br)(Br)P(=O)(O)O)[C@@H](O)[C@H]1O [ARL67156],ERK phosphorylation / activity,ERK,increase
same,ERK phosphorylation / activity,ERK; listed as ARL,increased
CSc1nc(N)c2ncn([C@@H]3O[C@H](COP(=O)(O)OP(=O)(O)O)[C@@H](O)[C@H]3O)c2n1 [2MeSADP],cells activated / responsive to P2 subtype preferring agonist,DO11.10 T cell clones,31%
Cc1nc(N=Nc2ccc(S(=O)(=O)O)cc2S(=O)(=O)O)c(COP(=O)(O)O)c(C=O)c1O [PPADS],ERK phosphorylation / activity,ERK,significant inhibition
same,IL-2 in the cell culture supernatant,"naïve CD4^+ T cells [1]; versus untreated cells, 48 h",Analogous inhibition
same,nuclear localization of NFAT1,NFAT1,did not significantly affect
same,prolonged activation of MAPK (p38 MAPK and Erk),MAPK,almost completely abolished
same,"cellular damage due to toxicity, PI staining versus untreated",crt^−/− CD4^+ T cells [2],did not reveal any difference
"CCCCCCCCCCCCCC(=O)O[C@@H]1[C@@H](C)[C@@]2(O)[C@@H](C=C(CO)C[C@]3(O)C(=O)C(C)=C[C@@H]23)[C@@H]2C(C)(C)[C@]12OC(C)=O [PMA, phorbol 12-myristate 13-acetate, reference compound]",oATP and PPADS-dependent inhibition of IL-2 expression on addition of PMA,naïve CD4^+ T cells [1]; contemporaneous addition,rescued
same,Egr2 and Egr3 transcription,Egr2 and Egr3,robustly reduced
same,oATP inhibition of T cell proliferation on addition of second agent,naive CD4 T cells,completely restored
Nc1ncnc2c1ncn2[C@@H]1O[C@H](COP(=O)(O)CP(=O)(O)OP(=O)(O)O)[C@@H](O)[C@H]1O [αβMeATP],cells activated / responsive to P2 subtype preferring agonist,DO11.10 T cell clones,18%
WRQAAFVDSY [PX10],IL-2 secretion,mouse T cells,strongly inhibited
same,intracellular ATP after TCR triggering,T cell clones,rapid intracellular rise of ATP; also recorded: increases
same,T cell proliferation,human T cells,comparably to oATP
same,T cell proliferation,human T cells; listed as PX10 peptide,strongly inhibited
BzATP,cells activated / responsive to P2 subtype preferring agonist,DO11.10 T cell clones,33%
CC[C@H]1/C=C/C=C/C[C@@H](C)[C@H](O)[C@@](C)(O)C(=O)[C@@H](C)[C@H](O)[C@@H](C)C(=O)[C@@H](C)[C@H](O)[C@@H](C)/C=C/C(=O)O[C@@H]2[C@H](C)[C@H](CC1)O[C@]1(CC[C@H](C)[C@H](C[C@@H](C)O)O1)[C@H]2C [oligomycin],nuclear localization of NFAT1,NFAT1,did not significantly affect
same,"cellular damage due to toxicity, PI staining versus untreated",crt^−/− CD4^+ T cells [3],did not reveal any difference
same,activation induced ATP synthesis,naïve CD4^+ T cells [4],abolished
same,prolonged activation of MAPK (p38 MAPK and Erk),MAPK,almost completely abolished
N#CC(C#N)=NNc1cccc(Cl)c1 [CCCP],"Ca^2+ dependent inactivation of CRAC channels, crt^−/− versus crt^+/+ cells",CRAC channels,comparable
